The experiment concerns the target T1, chicken gizzard smooth muscle myosin subfragment-1 chemically crosslinked to cardiac or skeletal actin (Gallus gallus, UniProt P10587).
T1 construct: chicken gizzard smooth muscle myosin subfragment-1; from tissue; host or cells: chicken gizzard
Nature of the experiment: Smooth muscle myosin ATPase dose response assay (pyruvate kinase/horseradish peroxidase/pyruvate oxidase-coupled, amplex red fluorescence). Format: biochemical. The conditions noted are these: read-out: IC50 Arithmetic Mean. Put shortly: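 Amplex red fluorescence (480 nm excitation, 615 nm emission) tracked ATP hydrolysis by smooth muscle S1 crosslinked to actin with carbodiimide/N-hydroxysuccinimide. Reactions contained 0.15 mM ATP and 100 mM KCl at pH 7.00, 22° C. IC50 came from a four-parameter logistic fit.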
T1 sequence (P02607 2-151): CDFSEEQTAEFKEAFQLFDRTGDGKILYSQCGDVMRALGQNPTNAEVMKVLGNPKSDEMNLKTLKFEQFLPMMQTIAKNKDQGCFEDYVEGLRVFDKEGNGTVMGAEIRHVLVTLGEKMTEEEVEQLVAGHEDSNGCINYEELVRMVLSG
T1 sequence (P10587 84-789): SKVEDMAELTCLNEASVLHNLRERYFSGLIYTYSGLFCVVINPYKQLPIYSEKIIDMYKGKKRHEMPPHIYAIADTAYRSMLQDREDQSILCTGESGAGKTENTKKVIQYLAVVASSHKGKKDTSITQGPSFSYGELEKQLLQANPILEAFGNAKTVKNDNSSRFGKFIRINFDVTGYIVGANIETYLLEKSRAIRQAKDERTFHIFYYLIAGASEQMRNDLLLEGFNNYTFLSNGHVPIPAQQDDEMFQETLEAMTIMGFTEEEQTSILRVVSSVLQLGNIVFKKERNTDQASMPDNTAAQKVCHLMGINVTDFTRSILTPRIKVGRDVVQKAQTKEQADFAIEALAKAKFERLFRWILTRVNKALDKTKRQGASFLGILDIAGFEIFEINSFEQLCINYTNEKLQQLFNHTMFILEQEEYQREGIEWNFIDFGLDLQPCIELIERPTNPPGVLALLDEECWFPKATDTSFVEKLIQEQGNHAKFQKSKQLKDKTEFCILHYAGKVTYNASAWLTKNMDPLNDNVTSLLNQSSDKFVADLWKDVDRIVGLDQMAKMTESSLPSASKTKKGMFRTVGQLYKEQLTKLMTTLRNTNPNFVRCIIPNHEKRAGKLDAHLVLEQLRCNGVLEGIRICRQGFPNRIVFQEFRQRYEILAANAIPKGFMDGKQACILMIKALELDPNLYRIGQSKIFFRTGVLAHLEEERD
Usually IC50 stands for the concentration at which inhibition is half-maximal. With `CNC(=O)[C@H](CNC(=O)OC(C)(C)C)NC(=O)c1ccc(-c2ccccc2C#N)nc1NCCc1cccc(F)c1` [(2S)-3-[(tert-butoxy)carbonylamino]-2-[(6-(2-cyanophenyl)-2-{[2-(3-fluorophenyl)ethyl]amino}(3-pyridyl))carbonylamino]-N-methylpropanamide], the IC50 was 43600 nM. For `CC(C)(C)OC(=O)NC[C@H](NC(=O)c1ccc(-c2ccccc2C#N)nc1NCCc1cccc(F)c1)C(=O)O` [(2S)-3-[(tert-butoxy)carbonylamino]-2-[(6-(2-cyanophenyl)-2-{[2-(3-fluorophenyl)ethyl]amino}(3-pyridyl))carbonylamino]propanoic acid], the IC50 is 30400 nM. For `CN(C)C(=O)[C@H](CN)NC(=O)c1ccc(-c2ccccc2C#N)nc1NCCc1cccc(F)c1` [(2S)-3-amino-2-[(6-(2-cyanophenyl)-2-{[2-(3-fluorophenyl)ethyl]amino}(3-pyridyl))carbonylamino]-N,N-dimethylpropanamide], the IC50 turned out to be 23700 nM. As for `CNC(=O)[C@H](CN)NC(=O)c1ccc(-c2ccccc2C#N)nc1NCCc1cccc(F)c1` [(2S)-3-amino-2-[(6-(2-cyanophenyl)-2-{[2-(3-fluorophenyl)ethyl]amino}(3-pyridyl))carbonylamino]-N-methylpropanamide], the figure is 3450 nM; as for `N#Cc1ccccc1-c1ccc(C(=O)N[C@@H](CN)C(=O)O)c(NCCc2cccc(F)c2)n1` [(2S)-3-amino-2-[(6-(2-cyanophenyl)-2-{[2-(3-fluorophenyl)ethyl]amino}(3-pyridyl))carbonylamino]propanoic acid], 11100 nM. To `NCc1cc(C(=O)NCc2cccnc2)c(NCCc2cccc(F)c2)nc1-c1ccccc1` [(5-(aminomethyl)-2-{[2-(3-fluorophenyl)ethyl]amino}-6-phenyl(3-pyridyl))-N-(3-pyridylmethyl)carboxamide] belongs 8900 nM. As for `Cn1cc(-c2nc(NCCc3cccc(F)c3)c(C(=O)NCc3cccnc3)cc2Br)cn1` [(5-bromo-2-{[2-(3-fluorophenyl)ethyl]amino}-6-(1-methylpyrazol-4-yl)(3-pyridyl))-N-(3-pyridylmethyl)carboxamide], the figure is 23 nM. Turning to `O=C(NCc1cccnc1)c1cc(Br)c(-c2cn[nH]c2)nc1NCCc1cccc(F)c1` [(5-bromo-2-{[2-(3-fluorophenyl)ethyl]amino}-6-pyrazol-4-yl(3-pyridyl))-N-(3-pyridylmethyl)carboxamide], the IC50 came out at 21 nM.

As to `N#Cc1ccccc1-c1nc(NCCc2cccc(F)c2)c(C(=O)NCc2cccnc2)cc1Br` [(5-bromo-6-(2-cyanophenyl)-2-{[2-(3-fluorophenyl)ethyl]amino}(3-pyridyl))-N-(3-pyridylmethyl)carboxamide], the IC50 came out at 2650 nM. Take `Cn1cc(-c2nc(NCCc3cccc(F)c3)c(C(=O)NCc3cccnc3)cc2Cl)cn1` [(5-chloro-2-{[2-(3-fluorophenyl)ethyl]amino}-6-(1-methylpyrazol-4-yl)(3-pyridyl))-N-(3-pyridylmethyl)carboxamide]: the IC50 stood at 21 nM. With `N#Cc1ccccc1-c1nc(NCCc2cccc(F)c2)c(C(=O)NCc2cccnc2)cc1Cl` [(5-chloro-6-(2-cyanophenyl)-2-{[2-(3-fluorophenyl)ethyl]amino}(3-pyridyl))-N-(3-pyridylmethyl)carboxamide], the IC50 worked out at 512 nM.

For `Cn1cc(-c2nc(NCCc3cccc(F)c3)c(C(=O)NCc3cccnc3)cc2C#N)cn1` [(5-cyano-2-{[2-(3-fluorophenyl)ethyl]amino}-6-(1-methylpyrazol-4-yl)(3-pyridyl))-N-(3-pyridylmethyl)carboxamide], the IC50 worked out at 21 nM. As for `N#Cc1ccccc1-c1nc(NCCc2cccc(F)c2)c(C(=O)NCc2cccnc2)cc1C#N` [(5-cyano-6-(2-cyanophenyl)-2-{[2-(3-fluorophenyl)ethyl]amino}(3-pyridyl))-N-(3-pyridylmethyl)carboxamide], the figure is 318 nM; as for `Cn1cc(-c2nc(NCCc3cccc(F)c3)c(C(=O)NCC(C)(C)O)cc2F)cn1` [(5-fluoro-2-{[2-(3-fluorophenyl)ethyl]amino}-6-(1-methylpyrazol-4-yl)(3-pyridyl))-N-(2-hydroxy-2-methylpropyl)carboxamide], 381 nM. To `Cn1cc(-c2nc(NCCc3cccc(F)c3)c(C(=O)NCC(C)(C)CO)cc2F)cn1` [(5-fluoro-2-{[2-(3-fluorophenyl)ethyl]amino}-6-(1-methylpyrazol-4-yl)(3-pyridyl))-N-(3-hydroxy-2,2-dimethylpropyl)carboxamide] belongs 224 nM; to `Cn1cc(-c2nc(NCCc3cccc(F)c3)c(C(=O)NCc3cccnc3)cc2F)cn1` [(5-fluoro-2-{[2-(3-fluorophenyl)ethyl]amino}-6-(1-methylpyrazol-4-yl)(3-pyridyl))-N-(3-pyridylmethyl)carboxamide], 12 nM.

In the case of `Cn1cc(-c2nc(NCCc3cccc(F)c3)c(C(=O)NCc3cc[nH]n3)cc2F)cn1` [(5-fluoro-2-{[2-(3-fluorophenyl)ethyl]amino}-6-(1-methylpyrazol-4-yl)(3-pyridyl))-N-(pyrazol-3-ylmethyl)carboxamide], the IC50 is 20 nM. To `Cn1cc(-c2nc(NCCc3cccc(F)c3)c(C(=O)NCC(CO)CO)cc2F)cn1` [(5-fluoro-2-{[2-(3-fluorophenyl)ethyl]amino}-6-(1-methylpyrazol-4-yl)(3-pyridyl))-N-[3-hydroxy-2-(hydroxymethyl)propyl]carboxamide] belongs 134 nM. For the compound `O=C(NCc1ccccn1)c1cc(F)c(-c2cn[nH]c2)nc1NCCc1cccc(F)c1` [(5-fluoro-2-{[2-(3-fluorophenyl)ethyl]amino}-6-pyrazol-4-yl(3-pyridyl))-N-(2-pyridylmethyl)carboxamide], the IC50 amounted to 24 nM. Regarding `O=C(NCc1cccnc1)c1cc(F)c(-c2cn[nH]c2)nc1NCCc1cccc(F)c1` [(5-fluoro-2-{[2-(3-fluorophenyl)ethyl]amino}-6-pyrazol-4-yl(3-pyridyl))-N-(3-pyridylmethyl)carboxamide], the IC50 is 18 nM. To `O=C(NCc1cc[nH]n1)c1cc(F)c(-c2cn[nH]c2)nc1NCCc1cccc(F)c1` [(5-fluoro-2-{[2-(3-fluorophenyl)ethyl]amino}-6-pyrazol-4-yl(3-pyridyl))-N-(pyrazol-3-ylmethyl)carboxamide] belongs 24 nM. As for `O=C(NCC(CO)CO)c1cc(F)c(-c2cn[nH]c2)nc1NCCc1cccc(F)c1` [(5-fluoro-2-{[2-(3-fluorophenyl)ethyl]amino}-6-pyrazol-4-yl(3-pyridyl))-N-[3-hydroxy-2-(hydroxymethyl)propyl]carboxamide], the figure is 215 nM; as for `O=C(NCc1cccnc1)c1ccc(-c2nnn[nH]2)nc1NCCc1cccc(F)c1` [(6-(1H-1,2,3,4-tetraazol-5-yl)-2-{[2-(3-fluorophenyl)ethyl]amino}(3-pyridyl))-N-(3-pyridylmethyl)carboxamide], 78100 nM. To `O=C(NCc1cccnc1)c1ccc(-c2ccc(F)cc2Cl)nc1NCCc1cccc(F)c1` [(6-(2-chloro-4-fluorophenyl)-2-{[2-(3-fluorophenyl)ethyl]amino}(3-pyridyl))-N-(3-pyridylmethyl)carboxamide] belongs 1380 nM. Consider `Cc1ccc(-c2ccc(C(=O)NCc3cccnc3)c(NCCc3cccc(F)c3)n2)c(Cl)c1` [(6-(2-chloro-4-methylphenyl)-2-{[2-(3-fluorophenyl)ethyl]amino}(3-pyridyl))-N-(3-pyridylmethyl)carboxamide], for which the IC50 worked out at 2080 nM. As to `O=C(NCc1cccnc1)c1ccc(-c2cc(F)ccc2Cl)nc1NCCc1cccc(F)c1` [(6-(2-chloro-5-fluorophenyl)-2-{[2-(3-fluorophenyl)ethyl]amino}(3-pyridyl))-N-(3-pyridylmethyl)carboxamide], the IC50 is 1330 nM.

`COc1ccc(Cl)c(-c2ccc(C(=O)NCc3cccnc3)c(NCCc3cccc(F)c3)n2)c1` [(6-(2-chloro-5-methoxyphenyl)-2-{[2-(3-fluorophenyl)ethyl]amino}(3-pyridyl))-N-(3-pyridylmethyl)carboxamide]: the IC50 stood at 2000 nM.

As to `O=C(NCc1cccnc1)c1ccc(-c2c(F)cccc2Cl)nc1NCCc1cccc(F)c1` [(6-(2-chloro-6-fluorophenyl)-2-{[2-(3-fluorophenyl)ethyl]amino}(3-pyridyl))-N-(3-pyridylmethyl)carboxamide], the IC50 amounted to 540 nM. As for `N#Cc1sccc1-c1ccc(C(=O)NCc2cccnc2)c(NCCc2cccc(F)c2)n1` [(6-(2-cyano(3-thienyl))-2-{[2-(3-fluorophenyl)ethyl]amino}(3-pyridyl))-N-(3-pyridylmethyl)carboxamide], the figure is 33 nM; as for `N#Cc1cc(F)ccc1-c1ccc(C(=O)NCc2cccnc2)c(NCCc2cccc(F)c2)n1` [(6-(2-cyano-4-fluorophenyl)-2-{[2-(3-fluorophenyl)ethyl]amino}(3-pyridyl))-N-(3-pyridylmethyl)carboxamide], 38 nM; as for `Cc1ccc(-c2ccc(C(=O)NCc3cccnc3)c(NCCc3cccc(F)c3)n2)c(C#N)c1` [(6-(2-cyano-4-methylphenyl)-2-{[2-(3-fluorophenyl)ethyl]amino}(3-pyridyl))-N-(3-pyridylmethyl)carboxamide], 996 nM. As for `N#Cc1ccc(F)cc1-c1ccc(C(=O)NCc2cccnc2)c(NCCc2cccc(F)c2)n1` [(6-(2-cyano-5-fluorophenyl)-2-{[2-(3-fluorophenyl)ethyl]amino}(3-pyridyl))-N-(3-pyridylmethyl)carboxamide], the figure is 53 nM; as for `COc1ccc(C#N)c(-c2ccc(C(=O)NCc3cccnc3)c(NCCc3cccc(F)c3)n2)c1` [(6-(2-cyano-5-methoxyphenyl)-2-{[2-(3-fluorophenyl)ethyl]amino}(3-pyridyl))-N-(3-pyridylmethyl)carboxamide], 41 nM. As for `N#Cc1cccc(F)c1-c1ccc(C(=O)NCc2cccnc2)c(NCCc2cccc(F)c2)n1` [(6-(2-cyano-6-fluorophenyl)-2-{[2-(3-fluorophenyl)ethyl]amino}(3-pyridyl))-N-(3-pyridylmethyl)carboxamide], the IC50 came out at 86 nM.

(Values after US7932270B2 (Cytokinetics, Inc., priority 2006, dated 2011).)
